Laboratory results: PubChem BioAssay (NCI)
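Cultured in 96-well plates, cells were exposed to test compound for 48 hours across five concentrations. At the TGI there is no net growth.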

Tests used:
Experiment in all cases: NCI-60 cell line screen, 48 h
SF-295 CNS = test system: SF-295 CNS
SK-MEL-2 melanoma = test system: SK-MEL-2 melanoma
A498 renal = test system: A498 renal
A549 NSCLC = test system: A549 NSCLC
M14 melanoma = test system: M14 melanoma
HL-60(TB) leukemia = test system: HL-60(TB) leukemia
SF-539 CNS = test system: SF-539 CNS
CAKI-1 renal = test system: CAKI-1 renal
LOX IMVI melanoma = test system: LOX IMVI melanoma
MCF7 breast = test system: MCF7 breast
DU-145 prostate = test system: DU-145 prostate
HOP-62 NSCLC = test system: HOP-62 NSCLC
TK-10 renal = test system: TK-10 renal
HOP-92 NSCLC = test system: HOP-92 NSCLC
NCI/ADR-RES ovarian = test system: NCI/ADR-RES ovarian
KM12 colon = test system: KM12 colon
OVCAR-4 ovarian = test system: OVCAR-4 ovarian
IGROV1 ovarian = test system: IGROV1 ovarian
SK-MEL-5 melanoma = test system: SK-MEL-5 melanoma
HT29 colon = test system: HT29 colon
ACHN renal = test system: ACHN renal
UO-31 renal = test system: UO-31 renal
SNB-75 CNS = test system: SNB-75 CNS
SK-OV-3 ovarian = test system: SK-OV-3 ovarian
MDA-MB-231 breast = test system: MDA-MB-231 breast
CCRF-CEM leukemia = test system: CCRF-CEM leukemia
NCI-H460 lung = test system: NCI-H460 lung
BT-549 breast = test system: BT-549 breast
SNB-19 CNS = test system: SNB-19 CNS
MDA-MB-435 = test system: MDA-MB-435
OVCAR-3 ovarian = test system: OVCAR-3 ovarian
EKVX NSCLC = test system: EKVX NSCLC
COLO 205 colon = test system: COLO 205 colon
UACC-257 melanoma = test system: UACC-257 melanoma
HCT-15 colon = test system: HCT-15 colon
MALME-3M melanoma = test system: MALME-3M melanoma
MOLT-4 leukemia = test system: MOLT-4 leukemia
OVCAR-8 ovarian = test system: OVCAR-8 ovarian
786-0 renal = test system: 786-0 renal
SF-268 CNS = test system: SF-268 CNS
NCI-H23 lung = test system: NCI-H23 lung
U251 CNS = test system: U251 CNS
PC-3 prostate = test system: PC-3 prostate
NCI-H226 lung = test system: NCI-H226 lung
SW-620 colon = test system: SW-620 colon
SN12C renal = test system: SN12C renal
HCC-2998 colon = test system: HCC-2998 colon
NCI-H522 lung = test system: NCI-H522 lung
SK-MEL-28 melanoma = test system: SK-MEL-28 melanoma
OVCAR-5 ovarian = test system: OVCAR-5 ovarian
K-562 leukemia = test system: K-562 leukemia
MDA-N = test system: MDA-N
HCT-116 colon = test system: HCT-116 colon
UACC-62 melanoma = test system: UACC-62 melanoma
SR leukemia = test system: SR leukemia
RPMI-8226 leukemia = test system: RPMI-8226 leukemia
RXF 393 renal = test system: RXF 393 renal

Structure (SMILES): COc1ccc(-c2nnc(CCCCCCCCc3nnc(-c4ccc(OC)cc4)o3)o2)cc1
- TGI (SF-295 CNS): > 100 µM
- TGI (SK-MEL-2 melanoma): > 100 µM
- TGI (A498 renal): > 100 µM
- TGI (A549 NSCLC): > 100 µM
- TGI (M14 melanoma): > 100 µM
- TGI (HL-60(TB) leukemia): > 100 µM
- TGI (SF-539 CNS): > 100 µM
- TGI (CAKI-1 renal): > 100 µM
- TGI (LOX IMVI melanoma): > 100 µM
- TGI (MCF7 breast): > 100 µM
- TGI (DU-145 prostate): > 100 µM
- TGI (HOP-62 NSCLC): 74.2 µM
- TGI (TK-10 renal): > 100 µM
- TGI (HOP-92 NSCLC): > 100 µM
- TGI (NCI/ADR-RES ovarian): > 100 µM
- TGI (KM12 colon): > 100 µM
- TGI (OVCAR-4 ovarian): > 100 µM
- TGI (IGROV1 ovarian): > 100 µM
- TGI (SK-MEL-5 melanoma): > 100 µM
- TGI (HT29 colon): > 100 µM
- TGI (ACHN renal): > 100 µM
- TGI (UO-31 renal): > 100 µM
- TGI (SNB-75 CNS): 93.6 µM
- TGI (SK-OV-3 ovarian): > 100 µM
- TGI (MDA-MB-231 breast): > 100 µM
- TGI (CCRF-CEM leukemia): > 100 µM
- TGI (NCI-H460 lung): > 100 µM
- TGI (BT-549 breast): 59 µM
- TGI (SNB-19 CNS): > 100 µM
- TGI (MDA-MB-435): > 100 µM
- TGI (OVCAR-3 ovarian): > 100 µM
- TGI (EKVX NSCLC): > 100 µM
- TGI (COLO 205 colon): > 100 µM
- TGI (UACC-257 melanoma): > 100 µM
- TGI (HCT-15 colon): > 100 µM
- TGI (MALME-3M melanoma): > 100 µM
- TGI (MOLT-4 leukemia): > 100 µM
- TGI (OVCAR-8 ovarian): > 100 µM
- TGI (786-0 renal): > 100 µM
- TGI (SF-268 CNS): > 100 µM
- TGI (NCI-H23 lung): > 100 µM
- TGI (U251 CNS): > 100 µM
- TGI (PC-3 prostate): > 100 µM
- TGI (NCI-H226 lung): > 100 µM
- TGI (SW-620 colon): > 100 µM
- TGI (SN12C renal): > 100 µM
- TGI (HCC-2998 colon): > 100 µM
- TGI (NCI-H522 lung): > 100 µM
- TGI (SK-MEL-28 melanoma): > 100 µM
- TGI (OVCAR-5 ovarian): > 100 µM
- TGI (K-562 leukemia): > 100 µM
- TGI (MDA-N): > 100 µM
- TGI (HCT-116 colon): > 100 µM

Structure (SMILES): COc1cc(/C=C(\C#N)c2ccccn2)cc(Br)c1O
- TGI (SF-295 CNS): 83.2 µM
- TGI (SK-MEL-2 melanoma): > 100 µM
- TGI (A549 NSCLC): > 100 µM
- TGI (M14 melanoma): > 100 µM
- TGI (HL-60(TB) leukemia): > 100 µM
- TGI (SF-539 CNS): > 100 µM
- TGI (CAKI-1 renal): > 100 µM
- TGI (MCF7 breast): > 100 µM
- TGI (DU-145 prostate): > 100 µM
- TGI (HOP-62 NSCLC): > 100 µM
- TGI (TK-10 renal): > 100 µM
- TGI (NCI/ADR-RES ovarian): 75 µM
- TGI (KM12 colon): > 100 µM
- TGI (OVCAR-4 ovarian): > 100 µM
- TGI (IGROV1 ovarian): > 100 µM
- TGI (SK-MEL-5 melanoma): > 100 µM
- TGI (HT29 colon): > 100 µM
- TGI (ACHN renal): > 100 µM
- TGI (UO-31 renal): > 100 µM
- TGI (SNB-75 CNS): > 100 µM
- TGI (SK-OV-3 ovarian): > 100 µM
- TGI (CCRF-CEM leukemia): > 100 µM
- TGI (NCI-H460 lung): > 100 µM
- TGI (BT-549 breast): > 100 µM
- TGI (UACC-62 melanoma): > 100 µM
- TGI (SNB-19 CNS): > 100 µM
- TGI (OVCAR-3 ovarian): > 100 µM
- TGI (EKVX NSCLC): > 100 µM
- TGI (COLO 205 colon): > 100 µM
- TGI (UACC-257 melanoma): > 100 µM
- TGI (HCT-15 colon): > 100 µM
- TGI (MALME-3M melanoma): > 100 µM
- TGI (MOLT-4 leukemia): > 100 µM
- TGI (OVCAR-8 ovarian): > 100 µM
- TGI (786-0 renal): > 100 µM
- TGI (SF-268 CNS): > 100 µM
- TGI (NCI-H23 lung): > 100 µM
- TGI (U251 CNS): > 100 µM
- TGI (PC-3 prostate): > 100 µM
- TGI (SR leukemia): > 100 µM
- TGI (NCI-H226 lung): > 100 µM
- TGI (RPMI-8226 leukemia): > 100 µM
- TGI (SW-620 colon): > 100 µM
- TGI (SN12C renal): > 100 µM
- TGI (HCC-2998 colon): > 100 µM
- TGI (NCI-H522 lung): > 100 µM
- TGI (SK-MEL-28 melanoma): > 100 µM
- TGI (OVCAR-5 ovarian): > 100 µM
- TGI (RXF 393 renal): > 100 µM
- TGI (K-562 leukemia): > 100 µM
- TGI (MDA-N): > 100 µM
- TGI (HCT-116 colon): > 100 µM
